Data reported in patent US20240327428A1, “Inhibitors of human immunodeficiency virus replication, method of making and method of using thereof” (ASCLETIS BIOSCIENCE CO., LTD., priority 2023, published 2024).
Read-outs that look alike come from different tables or passages of the source.

What was measured:
[1] = Cellular toxicity in MT-4 cells (XTT staining); format: cell-based; conditions: human, 6 days incubation, read-out: TC50 (50% reduction in cell viability)
Method: (§1) The compounds were evaluated for inhibition of HIV-1IIIB infection and cellular toxicity in MT-4 cells.
(§2) The MT-4 cells and […] used in the HIV-1 inhibition assays were obtained from the AIDS Research and Reference Program (Rockville, MD) and propagated as recommended by the supplier.
(§3) Fifty microliters (50 μL) of MT-4 cells at a density of 1.0×10^4 cells/well in 10% complete RPMI-1640 (10% FBS supplemented with 1% L-glutamine and 1% Penicillin/Streptomycin) media were plated in a 96-well flat bottom plate. One-hundred microliters (100 μL) of each compound at 12 concentrations were added in triplicate followed by 50 μL of HIV-1IIIB at a pre-determined titer. The cultures were incubated for 6 days at 37° C./5% CO2. Following the incubation, the cells were stained with XTT for evaluation of compound efficacy and cellular toxicity, as described below.
(§4) Efficacy and toxicity values for the test materials were derived by measuring the reduction of the tetrazolium dye XTT (2,3-bis(2-methoxy-4-nitro-5-sulfophenyl)-5-[(phenylamino)carbonyl]-2H-tetrazolium hydroxide). XTT in metabolically active cells is metabolized by the mitochondrial enzyme NADPH oxidase to a soluble formazan product. XTT solution was prepared daily as a stock of 1 mg/mL in RPMI-1640 without additives. Phenazine methosulfate (PMS) solution was prepared at 0.15 mg/mL in DPBS and stored in the dark at −20° C. XTT/PMS stock was prepared immediately before use by adding 40 μL of PMS per mL of XTT solution. Fifty μL (50 μL) of XTT/PMS was added to each well of the plate and the plate incubated for 4 hours at 37° C. The 4-hour incubation has been empirically determined to be within the linear response range for XTT dye reduction with the indicated numbers of cells for each assay. The plates were sealed and inverted several times to mix the soluble formazan product and the plate was read at 450 nm (650 nm reference wavelength) with a Molecular Devices SpectraMax Plus 384 96 well plate format spectrophotometer.
(§5) Microsoft Excel 2010 in combination with XLfit4 was used to analyze and graph the data. EC50 (50% inhibition of virus replication), TC50 (50% reduction in cell viability) and a therapeutic index (TC50/EC50) are provided. Raw data for both antiviral activity and toxicity with a graphic representation of the data are provided in a printout summarizing the compound activity.

HIV-1IIIB = experiment: Inhibition of HIV-1IIIB infection in MT-4 cells (XTT staining); format: cell-based; conditions: HIV-1IIIB in MT-4 cells; for EC50: 6 days incubation, XTT, read-out: EC50 (50% inhibition of virus replication)
Method: as §1, §2, §3, §4, §5

[2] = Human immunodeficiency virus 1, MT4, 144 h

## Cn1nc(NS(C)(=O)=O)c2c(Cl)ccc(-n3c([C@H](Cc4cc(F)cc(F)c4)NC(=O)Cn4nc(C(F)(F)F)c5c4C(F)(F)C4CC54)nc4nc(S(C)(=O)=O)sc4c3=O)c21 (stereo partly shown) [Compound 29]
[1]
  CC50 at 6 days: > 100 nM
HIV-1IIIB
  Therapeutic Index (TC50/EC50): >2.9
  EC50: 34.9 nM

## Cn1nc(NS(C)(=O)=O)c2c(Cl)ccc(-n3c([C@H](Cc4cc(F)cc(F)c4)NC(=O)Cn4nc(C(F)(F)F)c5c4C(F)(F)[C@@H]4C[C@H]54)nc4nc(NCCO)sc4c3=O)c21 [Compound 47]
[1]
  CC50 at 6 days: > 100 nM
HIV-1IIIB
  Therapeutic Index (TC50/EC50): >83.3
HIV-1IIIB; [2]
  EC50: 1.2 nM

## Cn1nc(NS(C)(=O)=O)c2c(Cl)ccc(-n3c([C@H](Cc4cc(F)cc(F)c4)NC(=O)Cn4nc(C(F)(F)F)c5c4C(F)(F)[C@@H]4C[C@H]54)nc4nc(N5CCOC(C)(C)C5)sc4c3=O)c21 (atropisomer, axis not shown) [Compound 40]
[1]
  CC50 at 6 days: > 100 nM
HIV-1IIIB
  Therapeutic Index (TC50/EC50): >492.6
HIV-1IIIB; [2]
  EC50: 0.203 nM

## Cn1nc(NS(C)(=O)=O)c2c(Cl)ccc(-n3c([C@H](Cc4cc(F)cc(F)c4)NC(=O)Cn4nc(C(F)(F)F)c5c4C(F)(F)[C@@H]4C[C@H]54)nc4cc(N5CCCC5)sc4c3=O)c21 [Compound 39]
[1]
  CC50 at 6 days: > 100 nM
HIV-1IIIB
  Therapeutic Index (TC50/EC50): >5.4
HIV-1IIIB; [2]
  EC50: 18.6 nM

## Cn1nc(NS(C)(=O)=O)c2c(Cl)ccc(-n3c([C@H](Cc4cc(F)cc(F)c4)NC(=O)Cn4nc(C(F)(F)F)c5c4C(F)(F)[C@@H]4C[C@H]54)nc4nc(N5CCOCC5)sc4c3=O)c21 [Compound 51]
[1]
  CC50 at 6 days: > 100 nM
HIV-1IIIB
  Therapeutic Index (TC50/EC50): >518.1
HIV-1IIIB; [2]
  EC50: 0.193 nM

## Cn1nc(NS(C)(=O)=O)c2c(Cl)ccc(-n3c([C@H](Cc4cc(F)cc(F)c4)NC(=O)Cn4nc(C(F)(F)F)c5c4C(F)(F)[C@@H]4C[C@H]54)nc4sc(CC(F)(F)F)cc4c3=O)c21 [Compound 43]
[1]
  CC50 at 6 days: > 100 nM
HIV-1IIIB
  Therapeutic Index (TC50/EC50): >31.7
HIV-1IIIB; [2]
  EC50: 3.15 nM

## Cn1nc(NS(C)(=O)=O)c2c(Cl)ccc(-n3c([C@H](Cc4cc(F)cc(F)c4)NC(=O)Cn4nc(C(F)(F)F)c5c4C(F)(F)[C@@H]4C[C@H]54)nc4ncsc4c3=O)c21 (atropisomer, axis not shown) [Compound 35]
[1]
  CC50 at 6 days: > 100 nM
HIV-1IIIB
  EC50: > 100 nM

## Cn1nc(NS(C)(=O)=O)c2c(Cl)ccc(-n3c([C@H](Cc4cc(F)cc(F)c4)NC(=O)Cn4nc(C(F)(F)F)c5c4C(F)(F)[C@@H]4C[C@H]54)nc4sccc4c3=O)c21 (atropisomer, axis not shown) [Compound 32]
[1]
  CC50 at 6 days: > 100 nM
HIV-1IIIB
  EC50: > 100 nM

## Cn1nc(NS(C)(=O)=O)c2c(Cl)ccc(-n3c([C@H](Cc4cc(F)cc(F)c4)NC(=O)Cn4nc(C(F)(F)F)c5c4C(F)(F)[C@@H]4C[C@H]54)nc4nc(NCCC(F)(F)F)sc4c3=O)c21 [Compound 49]
[1]
  CC50 at 6 days: > 100 nM
HIV-1IIIB
  Therapeutic Index (TC50/EC50): >458.7
HIV-1IIIB; [2]
  EC50: 0.218 nM

## Cn1nc(NS(C)(=O)=O)c2c(Cl)ccc(-n3c([C@H](Cc4cc(F)cc(F)c4)NC(=O)Cn4nc(C(F)(F)F)c5c4C(F)(F)[C@@H]4C[C@H]54)nc4sc(-c5ccc(F)cc5)cc4c3=O)c21 (atropisomer, axis not shown) [Compound 42]
[1]
  CC50 at 6 days: > 100 nM
HIV-1IIIB
  Therapeutic Index (TC50/EC50): >26.4
HIV-1IIIB; [2]
  EC50: 3.79 nM

## Cc1nsc2nc([C@H](Cc3cc(F)cc(F)c3)NC(=O)Cn3nc(C(F)(F)F)c4c3C(F)(F)[C@@H]3C[C@H]43)n(-c3ccc(Cl)c4c(NS(C)(=O)=O)nn(C)c34)c(=O)c12 (atropisomer, axis not shown) [Compound 44]
[1]
  CC50 at 6 days: > 100 nM
HIV-1IIIB
  Therapeutic Index (TC50/EC50): >2.9
  EC50: 34.1 nM

## Cn1nc(NS(C)(=O)=O)c2c(Cl)ccc(-n3c([C@H](Cc4cc(F)cc(F)c4)NC(=O)Cn4nc(C(F)(F)F)c5c4C(F)(F)[C@@H]4C[C@H]54)nc4c(c3=O)CCCN4)c21 (atropisomer, axis not shown) [Compound 34]
[1]
  CC50 at 6 days: > 100 nM
HIV-1IIIB
  Therapeutic Index (TC50/EC50): >42.6
HIV-1IIIB; [2]
  EC50: 2.35 nM

## Cn1nc(NS(C)(=O)=O)c2c(Cl)ccc(-n3c([C@H](Cc4cc(F)cc(F)c4)NC(=O)Cn4nc(C(F)(F)F)c5c4C(F)(F)[C@@H]4C[C@H]54)nc4nc(OCCC(F)(F)F)sc4c3=O)c21 (atropisomer, axis not shown) [Compound 53]
[1]
  CC50 at 6 days: > 100 nM
HIV-1IIIB
  Therapeutic Index (TC50/EC50): >980.4
HIV-1IIIB; [2]
  EC50: 0.102 nM

## CN(CCC(F)(F)F)c1nc2nc([C@H](Cc3cc(F)cc(F)c3)NC(=O)Cn3nc(C(F)(F)F)c4c3C(F)(F)[C@@H]3C[C@H]43)n(-c3ccc(Cl)c4c(NS(C)(=O)=O)nn(C)c34)c(=O)c2s1 [Compound 50]
[1]
  CC50 at 6 days: > 100 nM
HIV-1IIIB
  Therapeutic Index (TC50/EC50): >1136.4
HIV-1IIIB; [2]
  EC50: 0.088 nM

## Cn1nc(NS(C)(=O)=O)c2c(Cl)ccc(-n3c([C@H](Cc4cc(F)cc(F)c4)NC(=O)Cn4nc(C(F)(F)F)c5c4C(F)(F)[C@@H]4C[C@H]54)nc4onc(-c5ccccc5)c4c3=O)c21 (atropisomer, axis not shown) [Compound 37]
[1]
  CC50 at 6 days: > 100 nM
HIV-1IIIB
  Therapeutic Index (TC50/EC50): >9.0
  EC50: 11.1 nM

## CN(C)c1nc2nc([C@H](Cc3cc(F)cc(F)c3)NC(=O)Cn3nc(C(F)(F)F)c4c3C(F)(F)[C@@H]3C[C@H]43)n(-c3ccc(Cl)c4c(NS(C)(=O)=O)nn(C)c34)c(=O)c2s1 (atropisomer, axis not shown) [Compound 48]
[1]
  CC50 at 6 days: > 100 nM
HIV-1IIIB
  Therapeutic Index (TC50/EC50): >432.9
HIV-1IIIB; [2]
  EC50: 0.231 nM

## CC1(C)CN(c2nc3nc([C@H](Cc4cc(F)cc(F)c4)NC(=O)Cn4nc(C(F)(F)F)c5c4C(F)(F)[C@@H]4C[C@H]54)n(-c4ccc(Cl)c5c(NS(C)(=O)=O)nn(CC(F)(F)F)c45)c(=O)c3s2)CCO1 (racemic) [Compound 52]
[1]
  CC50 at 6 days: > 100 nM
HIV-1IIIB
  Therapeutic Index (TC50/EC50): >653.6
HIV-1IIIB; [2]
  EC50: 0.153 nM

## COCCNc1nc2nc([C@H](Cc3cc(F)cc(F)c3)NC(=O)Cn3nc(C(F)(F)F)c4c3C(F)(F)[C@@H]3C[C@H]43)n(-c3ccc(Cl)c4c(NS(C)(=O)=O)nn(C)c34)c(=O)c2s1 [Compound 46]
[1]
  CC50 at 6 days: > 100 nM
HIV-1IIIB
  Therapeutic Index (TC50/EC50): >510.2
HIV-1IIIB; [2]
  EC50: 0.196 nM

## Cn1nc(NS(C)(=O)=O)c2c(Cl)ccc(-n3c([C@H](Cc4cc(F)cc(F)c4)NC(=O)Cn4nc(C(F)(F)F)c5c4C(F)(F)[C@@H]4C[C@H]54)nc4nc(N5CC6(COC6)C5)sc4c3=O)c21 (atropisomer, axis not shown) [Compound 41]
[1]
  CC50 at 6 days: > 100 nM
HIV-1IIIB
  Therapeutic Index (TC50/EC50): >193.4
HIV-1IIIB; [2]
  EC50: 0.517 nM

## CS(=O)(=O)Nc1nn(CC(F)(F)F)c2c(-n3c([C@H](Cc4cc(F)cc(F)c4)NC(=O)Cn4nc(C(F)(F)F)c5c4C(F)(F)[C@@H]4C[C@H]54)nc4sccc4c3=O)ccc(Cl)c12 [Compound 1]
[1]
  CC50 at 6 days: > 100 nM
HIV-1IIIB
  Therapeutic Index (TC50/EC50): >312.5
HIV-1IIIB; [2]
  EC50: 0.32 nM

## CS(=O)(=O)Nc1nn(CC(F)(F)F)c2c(-n3c([C@H](Cc4cc(F)cc(F)c4)NC(=O)Cn4nc(C(F)(F)F)c5c4C(F)(F)[C@@H]4C[C@H]54)nc4ncsc4c3=O)ccc(Cl)c12 [Compound 3]
[1]
  CC50 at 6 days: > 100 nM
HIV-1IIIB
  Therapeutic Index (TC50/EC50): >625.0
HIV-1IIIB; [2]
  EC50: 0.16 nM
